Test results as given in patent US20260345621A1, “GABAA RECEPTOR MODULATORS AND USES THEREOF” (Engrail Therapeutics, Inc., priority 2022, published 2026).
Entries after “also recorded” stand apart in the source; their conditions may differ.

Key:
EEG spectral bands = assay: Pharmaco-EEG spectral analysis in wirelessly implanted rats
[1] = target: human GABAA receptor α3/β3/γ2 (Homo sapiens, UniProt P18507+P34903); assay: SyncroPatch platform, PAM mode, GABAA α3/β3/γ2
[2] = Frontal-Parietal cortex, Quiet Wake

human GABAA receptor α3/β3/γ2, sequence (P34903 29-492): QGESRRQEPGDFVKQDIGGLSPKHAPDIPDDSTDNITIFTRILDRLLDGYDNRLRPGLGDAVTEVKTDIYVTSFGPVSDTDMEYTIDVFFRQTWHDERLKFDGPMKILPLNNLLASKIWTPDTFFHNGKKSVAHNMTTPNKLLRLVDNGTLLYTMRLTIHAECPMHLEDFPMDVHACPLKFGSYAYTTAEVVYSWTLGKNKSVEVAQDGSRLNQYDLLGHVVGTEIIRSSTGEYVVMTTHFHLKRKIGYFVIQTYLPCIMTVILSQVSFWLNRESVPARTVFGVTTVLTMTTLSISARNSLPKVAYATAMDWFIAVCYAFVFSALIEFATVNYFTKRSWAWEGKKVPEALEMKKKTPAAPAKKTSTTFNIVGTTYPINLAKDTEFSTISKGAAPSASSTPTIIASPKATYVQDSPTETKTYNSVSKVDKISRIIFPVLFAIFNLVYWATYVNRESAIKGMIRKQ
human GABAA receptor α3/β3/γ2, sequence (P18507 40-475): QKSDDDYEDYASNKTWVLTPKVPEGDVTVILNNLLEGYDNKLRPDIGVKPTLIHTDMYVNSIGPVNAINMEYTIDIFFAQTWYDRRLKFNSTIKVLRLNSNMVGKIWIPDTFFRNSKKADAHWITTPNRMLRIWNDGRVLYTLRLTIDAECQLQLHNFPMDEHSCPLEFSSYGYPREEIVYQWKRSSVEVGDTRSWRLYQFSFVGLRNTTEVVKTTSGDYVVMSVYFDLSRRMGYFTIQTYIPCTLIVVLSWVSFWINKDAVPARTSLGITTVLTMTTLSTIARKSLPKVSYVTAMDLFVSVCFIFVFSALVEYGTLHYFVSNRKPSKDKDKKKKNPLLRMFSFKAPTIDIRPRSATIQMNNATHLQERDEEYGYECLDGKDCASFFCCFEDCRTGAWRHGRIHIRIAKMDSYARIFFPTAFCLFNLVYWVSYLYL
human GABAA receptor α3/β3/γ2, sequence (P28472 26-473 partner): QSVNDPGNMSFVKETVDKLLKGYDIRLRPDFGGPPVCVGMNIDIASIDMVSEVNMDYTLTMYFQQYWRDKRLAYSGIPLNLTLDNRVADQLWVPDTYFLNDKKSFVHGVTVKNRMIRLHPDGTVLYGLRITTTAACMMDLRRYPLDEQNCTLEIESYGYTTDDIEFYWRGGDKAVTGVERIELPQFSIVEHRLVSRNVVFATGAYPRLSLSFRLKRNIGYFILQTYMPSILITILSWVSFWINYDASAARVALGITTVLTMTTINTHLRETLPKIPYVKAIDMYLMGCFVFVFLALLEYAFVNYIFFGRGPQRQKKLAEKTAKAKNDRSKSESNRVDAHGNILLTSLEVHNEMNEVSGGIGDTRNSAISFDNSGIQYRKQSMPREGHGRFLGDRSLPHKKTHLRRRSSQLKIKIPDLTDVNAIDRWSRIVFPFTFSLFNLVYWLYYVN

CC(C)(O)c1cnn2c(-c3ccc(F)c(-c4c(F)cccc4C#N)c3)cnc2n1 [Compound 1, 2′,6-difluoro-5′-(3-(2-hydroxypropan-2-yl)imidazo[1,2-b][1,2,4]triazin-7-yl)-[1,1′-biphenyl]-2-carbonitrile]
EEG spectral power change (EEG spectral bands; Frontal-Frontal cortex, Active and Quiet Wake): increased beta, low and high gamma
EEG spectral power change (EEG spectral bands; Frontal-Frontal cortex, NREM): decreased theta and alpha; also recorded: decreased delta and increased low and high gamma
duration of EEG effects (EEG spectral bands; Frontal-Frontal cortex, NREM, Compound 1 high dose PO, Lorazepam 1 mg/kg IP): 48 h
EEG spectral power change (EEG spectral bands; Frontal-Frontal cortex, REM): increased beta
EEG spectral power change (EEG spectral bands; Frontal-Parietal cortex, Active Wake): decreased alpha but increased beta, low and high gamma
EEG spectral power change (EEG spectral bands; Frontal-Parietal cortex, NREM): decreased delta, theta, and alpha; also recorded: increase in low and high gamma
duration of delta and theta effects (EEG spectral bands; Frontal-Parietal cortex, NREM): 48 h
duration of increase in low and high gamma (EEG spectral bands; Frontal-Parietal cortex, NREM): 48 h
EEG spectral power change (EEG spectral bands; [2]): decreased delta but increased beta, low and high gamma
duration of EEG effects (EEG spectral bands; [2]): 48 h
EEG spectral power change (EEG spectral bands; Frontal-Parietal cortex, REM): decreased theta and alpha but increased beta and low gamma
decrease in delta/theta power (EEG spectral bands; Non-REM sleep): 40%
delta and theta power (EEG spectral bands; Non-REM sleep, all doses, ANOVA w Dunnett's): significant decreases in delta and theta power across all doses
EEG profile (EEG spectral bands; oral dosing, rats): EEG changes indicative of an anxiolytic profile
sedation / anxiolytic profile (EEG spectral bands; sleep-wake pattern and EEG profile analysis): non-sedative anxiolytic profile
EEG spectral power change (EEG spectral bands; summary, Active Wake): increased low gamma and decreased alpha (Parietal ctx)
EEG spectral power change (EEG spectral bands; summary, Non-REM): suppressed power in low frequencies (Delta, Theta, and Alpha) and increased higher frequencies (gamma)
EEG spectral power change (EEG spectral bands; summary, Quiet Wake): increased beta and low gamma
EEG spectral power change (EEG spectral bands; summary, REM): increased beta
EC50 [1]: 2.47 nM
Emax [1]: 113%
